Experimental findings from BindingDB's records for doi:10.1021/acschembio.6b00747 (The University of Kansas, 2017) are described below.

One assay has as its target Endoplasmin (Homo sapiens, UniProt P14625). Put plainly: Fluorescence Polarization (FP) Assay. The note with it: pH 7.3. The protocol:
(§1) Assay buffer (25 μL, 20 mM HEPES at pH 7.3, 50 mM KCl, 5 mM MgCl2, 1 mM DTT, 20 mM Na2MoO4, 0.01% NP-40, and 0.5 mg mL−1 BGG) was added to a 96-well plate (black well, black bottom) followed by the desired compound at the indicated final concentrations in DMSO (1% DMSO final concentration). Subsequently, 10 nM recombinant cGrp94/Hsp90α and 6 nM FITC-GDA were added in 50 and 25 μL assay buffer respectively, resulting in a 100 μL final volume. Plates were incubatedfor 5 h at 4 °C on a rocker. […] Percent FITC-GDA bound was determined by assigning the DMSO millipolarization unit (mP) value as the 100% bound value and 0% for FITC-GDA in assay buffer without any protein.

The target in assay [1] is Heat shock protein HSP 90-alpha (Homo sapiens, UniProt P07900). Nature of the assay: Fluorescence Polarization (FP) Assay. The note with it: pH 7.3. The protocol:
as §1
On the technique in general: Polarisation of emitted light reports the rotation of a fluorescent probe.

Endoplasmin, sequence (P14625 whole entry): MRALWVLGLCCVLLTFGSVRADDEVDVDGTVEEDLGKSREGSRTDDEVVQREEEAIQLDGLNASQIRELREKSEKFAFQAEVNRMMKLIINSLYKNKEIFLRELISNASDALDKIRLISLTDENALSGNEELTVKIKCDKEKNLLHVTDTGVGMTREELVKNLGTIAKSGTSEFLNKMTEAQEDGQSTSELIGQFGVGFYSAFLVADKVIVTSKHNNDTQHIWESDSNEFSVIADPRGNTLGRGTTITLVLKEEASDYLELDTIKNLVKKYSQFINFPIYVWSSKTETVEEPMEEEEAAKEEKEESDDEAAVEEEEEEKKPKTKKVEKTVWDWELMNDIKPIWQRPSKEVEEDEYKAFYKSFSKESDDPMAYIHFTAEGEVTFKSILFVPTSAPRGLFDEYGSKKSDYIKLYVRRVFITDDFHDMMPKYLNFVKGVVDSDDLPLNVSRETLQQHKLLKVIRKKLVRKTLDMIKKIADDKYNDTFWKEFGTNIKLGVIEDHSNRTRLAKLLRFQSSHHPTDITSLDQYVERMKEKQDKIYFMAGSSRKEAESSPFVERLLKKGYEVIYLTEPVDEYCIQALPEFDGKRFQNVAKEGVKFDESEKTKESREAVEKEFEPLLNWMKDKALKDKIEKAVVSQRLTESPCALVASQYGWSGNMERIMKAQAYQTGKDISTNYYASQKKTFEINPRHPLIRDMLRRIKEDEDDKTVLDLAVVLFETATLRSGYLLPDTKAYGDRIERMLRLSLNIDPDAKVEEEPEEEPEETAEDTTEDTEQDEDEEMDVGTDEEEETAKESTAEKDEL

As for `COc1ccccc1Cc1cccn1-c1ccc(C(N)=O)c(NC2CCC(O)CC2)c1` (stereo not given) [2-(((1r,4r)-4-hydroxycyclohexyl)amino)-4-(2-(2-methoxybenzyl)-1H-pyrrol-1-yl)benzamide (8m)], the Kd on Endoplasmin was 1.15 µM; in assay [1], > 100 µM.
Take `Cc1ccccc1Cc1cccn1-c1ccc(C(N)=O)c(NC2CCC(O)CC2)c1` (stereo not given) [2-(((1r,4r)-4-hydroxycyclohexyl)amino)-4-(2-(2-methylbenzyl)-1H-pyrrol-1-yl)benzamide (8i)]: the results for the Kd (on Endoplasmin; in assay [1]) were 4.2 µM and > 100 µM, respectively.
The like results for `Cc1cccc(-c2cccn2-c2ccc(C(N)=O)c(NC3CCC(O)CC3)c2)c1` (stereo not given) [2-(((1r,4r)-4-hydroxycyclohexyl)amino)-4-(2-(m-tolyl)-1H-pyrrol-1-yl)benzamide (5c)] were, in that order, 9.43 µM and > 100 µM.
The matching figures for `Cc1ccccc1-c1cccn1-c1ccc(C(N)=O)c(NC2CCC(O)CC2)c1` (stereo not given) [2-(((1r,4r)-4-hydroxycyclohexyl)amino)-4-(2-(o-tolyl)-1H-pyrrol-1-yl)benzamide (5b)]: 9.9 µM and > 100 µM.
The matching figures for `Cc1ccc(-c2cccn2-c2ccc(C(N)=O)c(NC3CCC(O)CC3)c2)cc1` (stereo not given) [2-(((1r,4r)-4-hydroxycyclohexyl)amino)-4-(2-(p-tolyl)-1H-pyrrol-1-yl)benzamide (5d)]: 8.35 µM and > 100 µM.
For `NC(=O)c1ccc(-n2cccc2-c2ccccn2)cc1NC1CCC(O)CC1` (stereo not given) [2-(((1r,4r)-4-hydroxycyclohexyl)amino)-4-(2-(pyridin-2-yl)-1H-pyrrol-1-yl)benzamide (5h)], the dissociation constant Kd at Endoplasmin was 14 µM; in assay [1] it was > 100 µM.
The matching figures for `NC(=O)c1ccc(-n2cccc2Cc2ccccn2)cc1NC1CCC(O)CC1` (stereo not given) [2-(((1r,4r)-4-hydroxycyclohexyl)amino)-4-(2-(pyridin-2-ylmethyl)-1H-pyrrol-1-yl)benzamide (8o)]: 14 µM and > 100 µM.
The like results for `NC(=O)c1ccc(-n2cccc2-c2cccnc2)cc1NC1CCC(O)CC1` (stereo not given) [2-(((1r,4r)-4-hydroxycyclohexyl)amino)-4-(2-(pyridin-3-yl)-1H-pyrrol-1-yl)benzamide (5i)] were, in that order, 5.5 µM and > 100 µM.
The like results for `NC(=O)c1ccc(-n2cccc2Cc2cccnc2)cc1NC1CCC(O)CC1` (stereo not given) [2-(((1r,4r)-4-hydroxycyclohexyl)amino)-4-(2-(pyridin-3-ylmethyl)-1H-pyrrol-1-yl)benzamide (8p)] were, in that order, 5.5 µM and > 100 µM.
For `NC(=O)c1ccc(-n2cccc2-c2ccncc2)cc1NC1CCC(O)CC1` (stereo not given) [2-(((1r,4r)-4-hydroxycyclohexyl)amino)-4-(2-(pyridin-4-yl)-1H-pyrrol-1-yl)benzamide (5j)], the Kd on Endoplasmin was 13.2 µM; in assay [1] it was > 100 µM.
The matching figures for `NC(=O)c1ccc(-n2cccc2Cc2ccncc2)cc1NC1CCC(O)CC1` (stereo not given) [2-(((1r,4r)-4-hydroxycyclohexyl)amino)-4-(2-(pyridin-4-ylmethyl)-1H-pyrrol-1-yl)benzamide (8q)]: 13.2 µM and > 100 µM.
The like results for `NC(=O)c1ccc(-n2cccc2CCc2ccccc2)cc1NC1CCC(O)CC1` (stereo not given) [2-(((1r,4r)-4-hydroxycyclohexyl)amino)-4-(2-phenethyl-1H-pyrrol-1-yl)benzamide (9)] were, in that order, > 25 µM and > 100 µM.
Take `NC(=O)c1ccc(-n2cccc2-c2ccccc2)cc1NC1CCC(O)CC1` (stereo not given) [2-(((1r,4r)-4-hydroxycyclohexyl)amino)-4-(2-phenyl-1H-pyrrol-1-yl)benzamide (5a)]: the Kd is 9.05 µM on Endoplasmin and > 100 µM in assay [1].
With `NC(=O)c1ccc(-n2cccc2Cc2c(F)cccc2F)cc1N[C@H]1CC[C@H](O)CC1` [4-(2-(2,6-difluorobenzyl)-1H-pyrrol-1-yl)-2-(((1r,4r)-4hydroxycyclohexyl)amino)benzamide (8n)], on Endoplasmin, the Kd was > 25 µM.
Turning to `NC(=O)c1ccc(-n2cccc2Cc2ccccc2Br)cc1NC1CCC(O)CC1` (stereo not given) [4-(2-(2-bromobenzyl)-1H-pyrrol-1-yl)-2-(((1r,4r)-4-hydroxycyclohexyl)amino)benzamide (8h)], the Kd on Endoplasmin is 12.9 µM; in assay [1], > 100 µM.
The matching figures for `NC(=O)c1ccc(-n2cccc2Cc2ccccc2Cl)cc1NC1CCC(O)CC1` (stereo not given) [4-(2-(2-chlorobenzyl)-1H-pyrrol-1-yl)-2-(((1r,4r)-4-hydroxycyclohexyl)amino)benzamide (8b)]: 0.83 µM and > 100 µM.
For `NC(=O)c1ccc(-n2cccc2-c2ccccc2Cl)cc1NC1CCC(O)CC1` (stereo not given) [4-(2-(2-chlorophenyl)-1H-pyrrol-1-yl)-2-(((1r,4r)-4-hydroxycyclohexyl)amino)benzamide (5e)], in assay [1], the dissociation constant (Kd) is > 100 µM.
As for `NC(=O)c1ccc(-n2cccc2Cc2ccccc2F)cc1NC1CCC(O)CC1` (stereo not given) [4-(2-(2-fluorobenzyl)-1H-pyrrol-1-yl)-2-(((1r,4r)-4-hydroxycyclohexyl)amino)benzamide (8e)], the Kd was 0.72 µM on Endoplasmin and > 100 µM in assay [1].
The matching figures for `NC(=O)c1ccc(-n2cccc2Cc2cccc(Cl)c2)cc1NC1CCC(O)CC1` (stereo not given) [4-(2-(3-chlorobenzyl)-1H-pyrrol-1-yl)-2-(((1r,4r)-4-hydroxycyclohexyl)amino)benzamide (8c)]: 2.45 µM and > 100 µM.
Regarding `NC(=O)c1ccc(-n2cccc2-c2cccc(Cl)c2)cc1NC1CCC(O)CC1` (stereo not given) [4-(2-(3-chlorophenyl)-1H-pyrrol-1-yl)-2-(((1r,4r)-4-hydroxycyclohexyl)amino)benzamide (5f)], the Kd in assay [1] was > 100 µM.
Turning to `NC(=O)c1ccc(-n2cccc2Cc2cccc(F)c2)cc1NC1CCC(O)CC1` (stereo not given) [4-(2-(3-fluorobenzyl)-1H-pyrrol-1-yl)-2-(((1r,4r)-4-hydroxycyclohexyl)amino)benzamide (8f)], the Kd is 4.53 µM on Endoplasmin and > 100 µM in assay [1].
Take `NC(=O)c1ccc(-n2cccc2Cc2cccc(O)c2)cc1NC1CCC(O)CC1` (stereo not given) [4-(2-(3-hydroxybenzyl)-1H-pyrrol-1-yl)-2-(((1r,4r)-4-hydroxycyclohexyl)amino)benzamide (8k)]: the Kd on Endoplasmin is > 25 µM; in assay [1] it was > 100 µM.
The like results for `NC(=O)c1ccc(-n2cccc2Cc2ccc(Cl)cc2)cc1NC1CCC(O)CC1` (stereo not given) [4-(2-(4-chlorobenzyl)-1H-pyrrol-1-yl)-2-(((1r,4r)-4-hydroxycyclohexyl)amino)benzamide (8d)] were, in that order, > 25 µM and > 100 µM.
The like results for `NC(=O)c1ccc(-n2cccc2-c2ccc(Cl)cc2)cc1NC1CCC(O)CC1` (stereo not given) [4-(2-(4-chlorophenyl)-1H-pyrrol-1-yl)-2-(((1r,4r)-4-hydroxycyclohexyl)amino)benzamide (5g)] were, in that order, 10.6 µM and > 100 µM.
Take `NC(=O)c1ccc(-n2cccc2Cc2ccc(F)cc2)cc1NC1CCC(O)CC1` (stereo not given) [4-(2-(4-fluorobenzyl)-1H-pyrrol-1-yl)-2-(((1r,4r)-4-hydroxycyclohexyl)amino)benzamide (8g)]: the Kd at Endoplasmin was 8.35 µM; in assay [1] it was > 100 µM.
On to `NC(=O)c1ccc(-n2cccc2Cc2ccc(O)cc2)cc1NC1CCC(O)CC1` (stereo not given) [4-(2-(4-hydroxybenzyl)-1H-pyrrol-1-yl)-2-(((1r,4r)-4-hydroxycyclohexyl)amino)benzamide (8l)], for which the dissociation constant Kd in assay [1] is > 100 µM.
Turning to `NC(=O)c1ccc(-n2cccc2Cc2ccccc2)cc1NC1CCC(O)CC1` (stereo not given) [4-(2-benzyl-1H-pyrrol-1-yl)-2-(((1r,4r)-4-hydroxycyclohexyl)amino)benzamide (8a)], the Kd at Endoplasmin was 1.13 µM; in assay [1], > 100 µM.

As a reminder, the Kd is the free concentration of one partner at which half of the binding sites on the other are occupied at equilibrium, for simple one-to-one binding.
